Key:
TAF1-BD2 = TAF1-BD2 (Homo sapiens, UniProt P21675); experiment: TAF1-BD2 TR-FRET Binding Assay; settings: read-out: TAF1-BD2 HTRF IC50
TAF1-BD1 = TAF1-BD1 (Homo sapiens, UniProt P21675); experiment: TAF1-BD1 TR-FRET Binding Assay; settings: read-out: TAF1-BD1 HTRF IC50

SMILES: Cc1[nH]c2c(=O)n(C)cc(C#CC(C)(O)C3CC3)c2c1-c1nnc(CC(C)C)o1 (centres unmarked) [Example 179, 4-(3-cyclopropyl-3-hydroxy-but-1-ynyl)-3-(5-isobutyl-1,3,4-oxadiazol-2-yl)-2,6-dimethyl-1H-pyrrolo[2,3-c]pyridin-7-one]
- IC50 (TAF1-BD2): 0.0292 µM
- IC50 (TAF1-BD1): 0.137 µM

SMILES: CCOC(=O)c1c(C)[nH]c2c(=O)n(C)cc(C#CC(O)(c3cccc(-c4cn[nH]c4)c3)C(F)(F)F)c12 (centres unmarked) [Example 41, ethyl 2,6-dimethyl-7-oxo-4-[4,4,4-trifluoro-3-hydroxy-3-[3-(1H-pyrazol-4-yl)phenyl]but-1-ynyl]-1H-pyrrolo[2,3-c]pyridine-3-carboxylate]
- IC50 (TAF1-BD2): 0.0215 µM
- IC50 (TAF1-BD1): 0.171 µM

SMILES: CCOC(=O)c1c(C)[nH]c2c(=O)n(C)cc(C#C[C@@](C)(O)c3nnc(C)o3)c12 [Example 64, ethyl 4-[(3R)-3-hydroxy-3-(5-methyl-1,3,4-oxadiazol-2-yl)but-1-ynyl]-2,6-dimethyl-7-oxo-1H-pyrrolo[2,3-c]pyridine-3-carboxylate]
- IC50 (TAF1-BD2): 0.16 µM
- IC50 (TAF1-BD1): 0.502 µM

SMILES: CCC(C)(C)OC(=O)c1c(C)[nH]c2c(=O)n(C)cc(C#CC(C)(C)O)c12 [Example 151, 1,1-dimethylpropyl 4-(3-hydroxy-3-methyl-but-1-ynyl)-2,6-dimethyl-7-oxo-1H-pyrrolo[2,3-c]pyridine-3-carboxylate]
- IC50 (TAF1-BD2): 0.0351 µM
- IC50 (TAF1-BD1): 0.221 µM

SMILES: CCOC(=O)c1c(C)[nH]c2c(=O)n(C)cc(C#C[C@](C)(O)c3ncccn3)c12 [Example 5, ethyl 4-[(3S)-3-hydroxy-3-pyrimidin-2-yl-but-1-ynyl]-2,6-dimethyl-7-oxo-1H-pyrrolo[2,3-c]pyridine-3-carboxylate]
- IC50 (TAF1-BD2): 1.63 µM
- IC50 (TAF1-BD1): 8.35 µM

SMILES: CCOC(=O)c1c(C)[nH]c2c(=O)n(C)cc(C#CC(O)(c3cccc(C(N)=O)c3)C(F)(F)F)c12 (centres unmarked) [Example 197, ethyl 4-[3-(3-carbamoylphenyl)-4,4,4-trifluoro-3-hydroxy-but-1-ynyl]-2,6-dimethyl-7-oxo-1H-pyrrolo[2,3-c]pyridine-3-carboxylate]
- IC50 (TAF1-BD2): 0.0341 µM
- IC50 (TAF1-BD1): 0.185 µM

SMILES: CCOC(=O)c1c(C)[nH]c2c(=O)n(C)cc(C#CC(C)(O)c3cccc(F)c3)c12 (centres unmarked) [Example 33, ethyl 4-[3-(3-fluorophenyl)-3-hydroxy-but-1-ynyl]-2,6-dimethyl-7-oxo-1H-pyrrolo[2,3-c]pyridine-3-carboxylate]
- IC50 (TAF1-BD2): 0.06 µM
- IC50 (TAF1-BD1): 0.218 µM

SMILES: CCOC(=O)c1c(C)[nH]c2c(=O)n(C)cc(C#CC(C)(C)NC(C)=O)c12 [Example 22, ethyl 4-(3-acetamido-3-methyl-but-1-ynyl)-2,6-dimethyl-7-oxo-1H-pyrrolo[2,3-c]pyridine-3-carboxylate]
- IC50 (TAF1-BD2): 0.523 µM
- IC50 (TAF1-BD1): 0.804 µM

SMILES: Cc1cc([C@](C)(O)C#Cc2cn(C)c(=O)c3[nH]cc(C(=O)OCC(C)C)c23)no1 [Example 54, isobutyl 4-[(3R)-3-hydroxy-3-(5-methylisoxazol-3-yl)but-1-ynyl]-6-methyl-7-oxo-1H-pyrrolo[2,3-c]pyridine-3-carboxylate]
- IC50 (TAF1-BD2): 0.122 µM
- IC50 (TAF1-BD1): 0.179 µM

SMILES: CCOC(=O)c1c(C)[nH]c2c(=O)n(C)cc(C#CC(O)(c3ccccc3)C(F)(F)F)c12 (single isomer, unassigned) [Example 91a, ethyl 2,6-dimethyl-7-oxo-4-(4,4,4-trifluoro-3-hydroxy-3-phenyl-but-1-ynyl)-1H-pyrrolo[2,3-c]pyridine-3-carboxylate]
- IC50 (TAF1-BD2): 0.206 µM
- IC50 (TAF1-BD1): 0.749 µM

SMILES: CCOC(=O)c1c(C)[nH]c2c(=O)n(C)cc(C#Cc3cncn3C)c12 [Example 56, ethyl 2,6-dimethyl-4-[2-(3-methylimidazol-4-yl)ethynyl]-7-oxo-1H-pyrrolo[2,3-c]pyridine-3-carboxylate]
- IC50 (TAF1-BD2): 0.129 µM
- IC50 (TAF1-BD1): 0.337 µM

SMILES: Cc1[nH]c2c(=O)n(C)cc(C#CC(C)(O)C3CC3)c2c1-c1nnco1 (centres unmarked) [Example 182, 4-(3-cyclopropyl-3-hydroxy-but-1-ynyl)-2,6-dimethyl-3-(1,3,4-oxadiazol-2-yl)-1H-pyrrolo[2,3-c]pyridin-7-one]
- IC50 (TAF1-BD2): 0.0535 µM
- IC50 (TAF1-BD1): 0.285 µM

SMILES: CCOC(=O)c1c(C)[nH]c2c(=O)n(C)cc(C#C[C@@H]3CCC[C@H]3O)c12 (stereo in doubt) [Example 83, ethyl 4-[2-(2-hydroxycyclopentyl)ethynyl]-2,6-dimethyl-7-oxo-1H-pyrrolo[2,3-c]pyridine-3-carboxylate]
- IC50 (TAF1-BD2): 0.302 µM
- IC50 (TAF1-BD1): 2.59 µM

SMILES: Cc1[nH]c2c(=O)n(C)cc(C#CC(C)(O)C3CC3)c2c1-c1nnc(C(C)(C)C)o1 (centres unmarked) [Example 187, 3-(5-tert-butyl-1,3,4-oxadiazol-2-yl)-4-(3-cyclopropyl-3-hydroxy-but-1-ynyl)-2,6-dimethyl-1H-pyrrolo[2,3-c]pyridin-7-one]
- IC50 (TAF1-BD2): 0.058 µM
- IC50 (TAF1-BD1): 0.216 µM

SMILES: CCOC(=O)c1c(C)[nH]c2c(=O)n(C)cc(C#CC(O)(C3CC3)C(F)(F)F)c12 (centres unmarked) [Example 45, ethyl 4-(3-cyclopropyl-4,4,4-trifluoro-3-hydroxy-but-1-ynyl)-2,6-dimethyl-7-oxo-1H-pyrrolo[2,3-c]pyridine-3-carboxylate]
- IC50 (TAF1-BD2): 0.0747 µM
- IC50 (TAF1-BD1): 0.271 µM

SMILES: CCOC(=O)c1c(C)[nH]c2c(=O)n(C)cc(C#CC3(O)C(=O)N(C)c4ccccc43)c12 (centres unmarked) [Example 86, ethyl 4-[2-(3-hydroxy-1-methyl-2-oxo-indolin-3-yl)ethynyl]-2,6-dimethyl-7-oxo-1H-pyrrolo[2,3-c]pyridine-3-carboxylate]
- IC50 (TAF1-BD2): 0.0981 µM
- IC50 (TAF1-BD1): 0.581 µM

SMILES: CCOC(=O)c1c(C)[nH]c2c(=O)n(C)cc(C#Cc3cccnc3)c12 [Example 61, ethyl 2,6-dimethyl-7-oxo-4-[2-(3-pyridyl)ethynyl]-1H-pyrrolo[2,3-c]pyridine-3-carboxylate]
- IC50 (TAF1-BD2): 0.0477 µM
- IC50 (TAF1-BD1): 0.292 µM

SMILES: Cc1[nH]c2c(=O)n(C)cc(C#CC(C)(C)O)c2c1C(=O)OCc1ccccc1C#N [Example 110, (2-cyanophenyl)methyl 4-(3-hydroxy-3-methyl-but-1-ynyl)-2,6-dimethyl-7-oxo-1H-pyrrolo[2,3-c]pyridine-3-carboxylate]
- IC50 (TAF1-BD2): 0.0294 µM
- IC50 (TAF1-BD1): 0.116 µM

SMILES: CCOC(=O)c1c(C)[nH]c2c(=O)n(C)cc(C#CC(O)(c3cccc(C#N)c3)C(F)(F)F)c12 (centres unmarked) [Example 40, ethyl 4-(3-(3-cyanophenyl)-4,4,4-trifluoro-3-hydroxybut-1-yn-1-yl)-2,6-dimethyl-7-oxo-6,7-dihydro-1H-pyrrolo[2,3-c]pyridine-3-carboxylate]
- IC50 (TAF1-BD2): 0.0692 µM
- IC50 (TAF1-BD1): 0.355 µM

SMILES: Cc1ccccc1COC(=O)c1c(C)[nH]c2c(=O)n(C)cc(C#CC(O)(c3ccccc3)C(F)(F)F)c12 (centres unmarked) [Example 108, o-tolylmethyl 2,6-dimethyl-7-oxo-4-(4,4,4-trifluoro-3-hydroxy-3-phenyl-but-1-ynyl)-1H-pyrrolo[2,3-c]pyridine-3-carboxylate]
- IC50 (TAF1-BD2): 1.26 µM
- IC50 (TAF1-BD1): 3.35 µM

SMILES: CC(=O)NCCC(C)(C)OC(=O)c1c(C)[nH]c2c(=O)n(C)cc(C#CC(C)(C)O)c12 [Example 164, (3-acetamido-1,1-dimethyl-propyl) 4-(3-hydroxy-3-methyl-but-1-ynyl)-2,6-dimethyl-7-oxo-1H-pyrrolo[2,3-c]pyridine-3-carboxylate]
- IC50 (TAF1-BD2): 0.0485 µM
- IC50 (TAF1-BD1): 0.514 µM

SMILES: CCOC(=O)c1c(C)[nH]c2c(=O)n(C)cc(C#Cc3ccccc3OC(F)(F)F)c12 [Example 57, ethyl 2,6-dimethyl-7-oxo-4-[2-[2-(trifluoromethoxy)phenyl]ethynyl]-1H-pyrrolo[2,3-c]pyridine-3-carboxylate]
- IC50 (TAF1-BD2): 0.0596 µM
- IC50 (TAF1-BD1): > 20 µM
